Experimental data published in publication PMC7756681, “Functional Hybrid Molecules for the Visualization of Cancer: PESIN‐Homodimers Combined with Multimodal Molecular Imaging Probes for Positron Emission Tomography and Optical Imaging: Suited for Tracking of GRPR‐Positive Malignant Tissue” (Chemistry (Weinheim an Der Bergstrasse, Germany), 2020).
Where two headings read alike, the source gives them in different places.

Experiments:
[1] = assay type: physicochemical; details: pH 7.4
Experimental: (§1) A solution of the respective multimodal imaging unit (MIU) 6a – 13a (5 nmol) or multimodal imaging agent 6 - 14 (5 nmol) in H2O (Tracepur quality, 1mM) was added to 90 - 120 MBq of [68Ga]GaCl in a solution obtained by fractioned elution of an IGG 68Ge/68Ga generator system […]
(§2) with HCl (0.1 M, 1.6 mL) and subsequent titration to pH 3.5 – 4.2 by addition of sodium acetate solution (1.25 M, 50 – 75 µL). All labeling experiments were performed by addition of 2 mg ascorbic acid to suppress radiolysis-induced product fragmentation. In the labeling experiments of the MIUs 6a – 13a, 1 - 4 mg TCEP x HCl were added and the pH was adjusted to 3.5 – 4.2 by addition of sodium acetate solution (1.25 M). After reaction for 10 min at 45°C, the reaction mixtures were analyzed by analytical radio-HPLC.
(§3) For 68Ga-6/6a – 68Ga-13/13a, the water/1-octanol partition coefficient (log ) was determined by […]
adding 5 µL of the respectively 68Ga-labeled compound (0.8 – 1.2 MBq) to a mixture of phosphate buffer (0.05 M, pH 7.4, 795 µL) and 1-octanol (800 µL). […] After subsequent centrifugation at 13 000 rpm for 5 min, 125 µL were taken from each phase and measured in a γ-counter. The logD values were calculated from three or four independent experiments, each performed in triplicate.
For 14, the water/1-octanol partition coefficient (logD) was determined by semipreparative HPLC. […]

[2] = molecular target: T1, gastrin-releasing peptide receptor (GRPR) (Homo sapiens, UniProt P30550); experiment: Competitive displacement assay on stably GRPR-transfected HEK cells using [125I]-Tyr4-bombesin; assay type: binding; details: [125I]-Tyr4-bombesin as competitor, 1 h, ambient temperature, read-out: IC50 (GRPR affinity)
T1 construct: host or cells: Human Embryonic Kidney 293 cells (HEK-GRPR)
Experimental: (§4) Competitive receptor binding assay
(§5) Stably GRPR-transfected Human Embryonic Kidney 293 cells (HEK-GRPR) were cultured at 37°C in Dulbecco’s Modified Eagle’s Medium (DMEM, high glucose, GlutaMax-I, 500 mL) […]
(§6) a humidified atmosphere containing 5 % CO2. The medium was exchanged every two or three days and cells were split at >75 % confluence. In vitro binding affinities were determined via competitive displacement experiments which were performed at least trice, each experiment performed in triplicate. A Millipore Multiscreen punch kit and Millipore 96 well filter plates (pore size 1.2 µm) were used. The plates were incubated with PBS/BSA (1%) solution (each well 200 µL) for one hour before use. HEK-GRPR cells were harvested and suspended carefully in Opti-MEM I (GlutaMAX I) medium. 50 µL of a cell suspension containing 105 cells were seeded in each well. To this, a total volume of 50 µL was added to each well, containing 25 µL (0.012 […]
The competitor was added in 11 increasing concentrations ranging from 0.25 – 500 nM for 6 – […]
binding of the radioligand. After one hour of incubation at ambient temperature, the solution was filtrated and the filters were washed with cold PBS (3 times). The filters were collected and […]

[3] = LogD determination of 68Ga-labeled MIUs and bioconjugates (water/1-octanol partition, γ-counter); details: pH 7.4
Experimental: Following the synthesis of the MIUs 6 a–13 a and the corresponding bioconjugates 6–13, the radiolabeling efficiency of the compounds with ^68Ga^3+ was investigated. […] In the following, we investigated the lipophilicity of the MIUs [^68Ga]6 a–[^68Ga]13 a and their bioconjugates [^68Ga]6–[^68Ga]13 (Table 1 and Figure 2 C,D).
as §1, §2, §3
adding 5 µL of the respectively 68Ga-labeled compound (0.8 – 1.2 MBq) to a mixture of phosphate buffer (0.05 M, pH 7.4, 795 µL) and 1-octanol (800 µL). The mixtures were intensively shaken for 5 minutes on a vibrating plate. After subsequent centrifugation at 13 000 rpm for 5 min, 125 µL were taken from each phase and measured in a γ-counter. The logD values were calculated from three or four independent experiments, each performed in triplicate.
For 14, the water/1-octanol partition coefficient (logD) was determined by semipreparative HPLC.
For this purpose, 10 µL solution (c = 5 x 10-4 mol/L) of the substance were added to a mixture of 1 mL 1-octanol and 990 µL phosphate buffered solution (0.05 M, pH 7.4) and the mixture was vigorously shaken for 5 minutes. After centrifugation, the phases were separated and both phases were analyzed by semipreparative HPLC. The logD was determined by three separate measurements, each experiment performed in triplicate.
as §4, §5
as §6, with “Opti-” for “Opti-MEM I (GlutaMAX I) medium. 50 µL of a cell suspension containing 105 cells were seeded in each well. To this, a total volume of 50 µL was added to each well, containing 25 µL (0.012”

[4] = Photophysical properties (absorption and emission spectra in PBS); assay type: physicochemical
Excerpt: After studying the chemical and biological properties of the MIUs and their corresponding multimodal imaging agents, the photophysical properties of the substances were finally under investigation. Here, we found no significant decrease or shift of the optical and fluorescent characteristics of the bioconjugates compared to the MIUs (Table 2).
Fig. S27 Normalized absorption and emission spectra of 7 (left) and 7a (right), recorded in PBS
at a concentration of c = 1.0 x 10-5 mol/L, emission wavelength stated in the graph (bottom, left
Fig. S28 Normalized absorption and emission spectra of 8 (left) and 8a (right), recorded in PBS
Fig. S29 Normalized absorption and emission spectra of 9 (left) and 9a (right), recorded in PBS […]
Fig. S30 Normalized absorption and emission spectra of 10 (left) and 10a (right), recorded in
PBS at a concentration of c = 1.0 x 10-5 mol/L, emission wavelength stated in the graph (bottom,
Fig. S31 Normalized absorption and emission spectra of 11 (left) and 11a (right), recorded in
Fig. S32 Normalized absorption and emission spectra of 12 (left) and 12a (right), recorded in […]

PC-3 cells = experiment: Confocal fluorescence microscopy on GRPR-positive PC-3 cells; assay type: cell-based, human; details: 10 μM, 4 h incubation
Experimental: Figure 4 Confocal fluorescence microscopy images for pyridinium-based bioconjugate […]). […] (B) NIR detector window (660-720 nm, 6). (C) Transmitted light. […] After one hour of incubation at ambient temperature, the solution was filtrated and the filters were washed with cold PBS (3 times). The filters were collected and measured by γ-counting. […] were calculated by fitting the obtained data via a nonlinear regression analysis using GraphPad Prism Software (v5.04). […] PC-3 cells were cultured at 37°C in RPMI 1640 medium supplemented with 10% FCS, 1% L-Glutamine and 1% PenStrep in a humidified atmosphere containing 5% CO2. […] Fluorescence microscopy was performed on a Leica TCS SP8 confocal microscope with laser excitation wavelengths of 405 and 638 nm. Overlays of microscopies were generated directly with the operating software or afterwards using FIJI software (v1.50e). PC-3 cells (4 x 104) were seeded two days prior to the measurements in six-well culture plates, each well was equipped with cover slips for microscopy. Medium was exchanged after 24h. After 2 days, the medium was removed and the cells were washed carefully with PBS. Then, 1 mL of a 10 μM solution of 6 in antibiotic-free medium was added, followed by incubation for 4h. […]

T1 sequence (P30550 whole entry, species assumed): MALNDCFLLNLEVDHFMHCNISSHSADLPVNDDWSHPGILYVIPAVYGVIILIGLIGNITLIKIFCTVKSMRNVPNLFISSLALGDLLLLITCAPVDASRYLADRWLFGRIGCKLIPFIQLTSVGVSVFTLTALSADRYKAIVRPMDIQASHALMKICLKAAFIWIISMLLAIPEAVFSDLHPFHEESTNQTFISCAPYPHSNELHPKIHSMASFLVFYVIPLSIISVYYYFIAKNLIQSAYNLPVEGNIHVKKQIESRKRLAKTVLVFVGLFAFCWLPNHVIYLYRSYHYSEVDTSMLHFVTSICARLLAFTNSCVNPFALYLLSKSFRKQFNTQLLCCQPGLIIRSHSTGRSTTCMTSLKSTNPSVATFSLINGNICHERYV

## CSCC[C@H](NC(=O)[C@H](CC(C)C)NC(=O)[C@H](Cc1c[nH]cn1)NC(=O)CNC(=O)[C@@H](NC(=O)[C@H](C)NC(=O)[C@H](Cc1c[nH]c2ccccc12)NC(=O)[C@H](CCC(N)=O)NC(=O)CCOCCOCCOCCOCCNC(=O)CON=Cc1ccc(C(=O)NCCCN(CCCNC(=O)c2ccc(C=NOCC(=O)NCCOCCOCCOCCOCCC(=O)N[C@@H](CCC(N)=O)C(=O)N[C@@H](Cc3c[nH]c4ccccc34)C(=O)N[C@@H](C)C(=O)N[C@H](C(=O)NCC(=O)N[C@@H](Cc3c[nH]cn3)C(=O)N[C@@H](CC(C)C)C(=O)N[C@@H](CCSC)C(N)=O)C(C)C)cc2)CC(=O)N[C@H](CSC2CC(=O)N(CCN3C(=O)CC(SC(C)(C)C)C3=O)C2=O)C(=O)NCCOCCOCC(N)=O)cc1)C(C)C)C(N)=O (some centres unmarked) [Compound 14]
[1]
  logD: -0.88 ± 0.04
[2]
  IC50: 0.0187 ± 0.00137 µM

## CSCC[C@H](NC(=O)[C@H](CC(C)C)NC(=O)[C@H](Cc1c[nH]cn1)NC(=O)CNC(=O)[C@@H](NC(=O)[C@H](C)NC(=O)[C@H](Cc1c[nH]c2ccccc12)NC(=O)[C@H](CCC(N)=O)NC(=O)CCOCCOCCOCCOCCNC(=O)CON=Cc1ccc(C(=O)NCCCN(CCCNC(=O)c2ccc(C=NOCC(=O)NCCOCCOCCOCCOCCC(=O)N[C@@H](CCC(N)=O)C(=O)N[C@@H](Cc3c[nH]c4ccccc34)C(=O)N[C@@H](C)C(=O)N[C@H](C(=O)NCC(=O)N[C@@H](Cc3c[nH]cn3)C(=O)N[C@@H](CC(C)C)C(=O)N[C@@H](CCSC)C(N)=O)C(C)C)cc2)CC(=O)N[C@H](CSC2CC(=O)N(CCN3C(=O)CC(SC[C@H](NC(=O)[C@H](CCCC[n+]4c(C)cc(/C=C/c5cc6c7c(c5)CCCN7CCC6)cc4C)NC(=O)CC[C@H](C(=O)O)N4CCN(CC(=O)O)CCN(CC(=O)O)CC4)C(N)=O)C3=O)C2=O)C(=O)NCCOCCOCC(N)=O)cc1)C(C)C)C(N)=O (some centres unmarked) [Compound 6]
[3]
  logD: -1.71 ± 0.05
[2]
  IC50: 0.019 ± 0.00113 µM
[4]; 1×10^−5 mol L^−1
  Log ϵ: 4.08 M ^−1 cm^−1
  λ max: 510 nm
[4]; 1×10^−5 mol L^−1, excitation wavelength λex=400 nm
  λem: 630 nm
PC-3 cells
  cellular localization of the agent: cytoplasmic localization
